Columns and labels:
[1] = tested on: anti-PEG antibody response; assay: Prophylaxis model: anti-PEG antibody response in PEG-naïve mice immunized with PEG-KLH (serum ELISA); assay type: in vivo, BALB/c mice
Experimental: Pre-immunization blood samples were collected by retroorbital bleeding on Day −5. All other blood draws were collected on the days indicated. For testing, pools of serum from each group (n=5) were generated by mixing equal volumes of serum from each mouse in the group. Treatments were as outlined below.
(§1) ELISAs were carried out as follows. Plates were coated overnight at 4° C. with 0.5 mcg antigen in 100 uL sodium carbonate coating buffer, then washed twice with PBS and blocked with 300 uL Blocking Buffer (nonfat dry milk-PBS (5% w/v) or 1× fish gel (Rockland immunochemicals)) at room temperature for 1 hr. […] After washing 3× for 5 minutes each with PBS, 100 uL TMBE was added to each well and a kinetic read taken for 5 minutes. Plates were allowed to continue the color development reaction for a total of 30 minutes at which time 100 uL stop solution was added and plates read. […]
In the present experiment, we first studied the anti-PEG IgM antibody response. […] Anti-PEG IgM antibodies were then measured against PEG-BSA by ELISA from bleeds collected on Day −5 and Day 9 (serum dilution 1:500)(FIG. 2).
In the present experiment, detection of IgG antibodies on Day 9 is not generally expected as this antibody subclass generally takes two weeks or more to emerge after immunization. […] The anti-PEG IgG response was assessed by ELISA as described above, using a serum dilution of 1:500.

[2] = tested on: anti-PEG antibody response; assay: Treatment model: mice with existing anti-PEG antibody response from PEG-KLH (serum ELISA); assay type: in vivo, BALB/c mice; details: PEG alone before and after PEG-KLH boosting (P/P), Day 21 and Day 28; bleed Day 30; serum 1:500; FIG. 6
Excerpt: Male BALB/c mice (aged 6-8 weeks) were immunized intraperitoneally (i.p.) with PEG conjugated to KLH (PEG-KLH) using Complete Freund's adjuvant on Day 1 (50 mcg) and boosted with the same conjugate using Incomplete Freund's adjuvant on Day 18 (25 mcg). Pre-immunization blood samples were collected by retroorbital bleeding on Day −5. All other blood draws were collected on the days indicated. For testing, pools of serum from each group (n=5) were generated by mixing equal volumes of serum from each mouse in the group. Treatments were as outlined below.
as §1
In this treatment scenario, to generate anti-PEG antibodies prior to treatment, mice were first immunized with PEG-KLH conjugate on Day 0 and boosted on Day 22 (FIG. 5). […] Anti-PEG IgG antibodies were measured on Day 30 by ELISA as indicated above (serum diluted 1:500). […]

MeO-23PEG-Ethanolamine
anti-PEG IgG antibodies (ELISA) ([1]; treatment Day 0 and Day 7, additional PEG-KLH immunization Day 22, bleed Day 26, serum 1:500, FIG. 4): readily detected | anti-PEG IgM antibodies (ELISA against PEG-BSA) ([1]; treatment i.p. Day 0 and Day 7, PEG-KLH Day 1, bleed Day 9, pooled serum 1:500, FIG. 3): readily detected | anti-PEG IgG antibodies [2]: had no effect on anti-PEG IgG antibodies

From patent US12390485B2, “Compounds and methods for suppressing an immune response to substances containing polyethylene glycol” (aAb Therapeutics, LLC, priority 2020, dated 2025)
